Measured values taken from PMC3894558, “Chemical signatures and new drug targets for gametocytocidal drug development” (Scientific Reports, 2014).
Entries after “also recorded” stand apart in the source; their conditions may differ. Like-named read-outs stand apart in the source and are kept apart here. Starred links: 1 amine or outer side, 2 acyl side, 3 side chain; linkers in the order of their positions; H or OH if unused. Positions of bridges follow the written chain, without caps; N, C: chain ends. Non-standard residues stand in square brackets, D forms with d. Residues, ends and D or L forms follow the SMILES beside them. Chains are numbered I, II in the order given. Actinocin(9to1) = Cc1c2oc3c(C)ccc(C(=O)[*:1])c3nc-2c(C(=O)[*:2])c(N)c1=O; NMeV = CN[C@H](C(=O)O)C(C)C; Sar = CNCC(=O)O

Tests used:
[1] = system: P. falciparum HB3 gametocytes; assay: alamarBlue gametocyte viability assay, strain HB3; format: cell-based, Plasmodium falciparum
mTOR = system: mTOR; parameters: method as in PMID 21322566; settings: cited from earlier work
HepG2 cells [2] = assay: cells; settings: Homo sapiens; for Emax: HepG2, read-out: % Max response
[3] = system: P. falciparum liver stage; parameters: method as in PMID 6285190; settings: read-out: IC50, P. falciparum development in the liver stage; cited from earlier work
[4] = parameters: method as in PMID 21322566; settings: cited from earlier work
[5] = system: P. falciparum 3D7 gametocytes; assay: alamarBlue gametocyte viability assay, strain 3D7; format: cell-based, Plasmodium falciparum
Plasmodium berghei ANKA = assay: mouse-mosquito transmission model, oocysts per mosquito midgut; format: in vivo, Plasmodium berghei in mice / Anopheles stephensi
[6] = system: P. falciparum Dd2 gametocytes; assay: alamarBlue gametocyte viability assay, strain Dd2; format: cell-based, Plasmodium falciparum
[7] = system: P. falciparum asexual blood stage; parameters: method as in PMID 6285190; settings: cited from earlier work
[8] = system: early stages (I and II) of P. falciparum gametocytes; parameters: method as in PMID 6285190; settings: cited from earlier work
[9] = system: P. falciparum asexual blood stage parasites; assay: asexual parasite SYBR green assay; format: cell-based, Plasmodium falciparum; settings: for IC50: Plasmodium falciparum, SYBR green assay, read-out: IC50 against asexual parasites
HepG2 cells [10] = settings: for % Max response: HepG2 cells
Dd2 asexual parasites = system: Dd2 asexual parasites; parameters: method as in PMID 17116676; settings: cited from earlier work
[11] = Plasmodium falciparum, HB3, strain profiling, 11 concentrations, 1:3 dilution, three times, read-out: HB3-gametocytes IC50
[12] = Plasmodium falciparum, 3D7, P. falciparum 3D7 gametocytes, mean of at least 3 independent experiments, read-out: Gametocyte IC50
[13] = Plasmodium falciparum, DD2, strain profiling, 11 concentrations, 1:3 dilution, three times, read-out: Dd2-gametocytes IC50
[14] = Plasmodium falciparum, HB3, read-out: HB3-gametocytes IC50
[15] = 11 concentrations, 1:3 dilution, Inactive = no significant activity at 46 µM
[16] = Plasmodium falciparum, DD2, read-out: Dd2-gametocytes IC50
[17] = read-out: HB3-gametocytes IC50, strain profiling, 11 concentrations, 1:3 dilution, three times
[18] = read-out: Gametocyte IC50, P. falciparum 3D7 gametocytes, mean of at least 3 independent experiments
[19] = read-out: Dd2-gametocytes IC50, strain profiling, 11 concentrations, 1:3 dilution, three times
[20] = strain profiling, 11 concentrations, 1:3 dilution, three times, read-out: HB3-gametocytes IC50
[21] = P. falciparum 3D7 gametocytes, mean of at least 3 independent experiments, read-out: Gametocyte IC50
[22] = strain profiling, 11 concentrations, 1:3 dilution, three times, read-out: Dd2-gametocytes IC50

Row | IC50 [1, 11] [µM] | IC50 [5, 12] [µM] | IC50 [6, 13] [µM] | IC50 in HepG2 cells (HepG2 cells [10]; [15]) | Molecule | Emax (HepG2 cells [2]) [%] | other results
1 | 0.935 | 0.307 | 0.526 | Inactive | CN(C)c1ccc2nc3ccc(=[N+](C)C)cc-3sc2c1 [Methylene blue] | -20 | 
2 |  |  |  |  | CCN(CC)CCCC(C)Nc1ccnc2cc(Cl)ccc12 (centres unmarked) [Chloroquine diphosphate] |  | IC50 ([1]; Plasmodium falciparum, HB3, read-out: HB3-gametocytes IC50, strain profiling, 11 concentrations, 1:3 dilution, three times): 0.935 µM; fold less potent against Dd2 asexual parasites compared to 3D7 (Dd2 asexual parasites): 10 fold; IC50 ([5]; Plasmodium falciparum, 3D7, read-out: 3D7-gametocytes IC50): 0.253 µM; reduction of potency against Dd2 gametocytes compared to 3D7 [6]: 3.7 fold; IC50 ([6]; Plasmodium falciparum, DD2, read-out: Dd2-gametocytes IC50, strain profiling, 11 concentrations, 1:3 dilution, three times): 0.935 µM
3 |  | 0.935 |  | Inactive | CC(=O)Nc1cccc(-n2c(=O)n(C3CC3)c(=O)c3c(Nc4ccc(I)cc4F)n(C)c(=O)c(C)c32)c1 [Trametinib] | 14 | 
4 |  |  |  |  | CC(=O)OC[C@H]1O[C@@H]([S-])[C@H](OC(C)=O)[C@@H](OC(C)=O)[C@@H]1OC(C)=O.CCP(CC)CC.[Au+] [Auranofin] |  | IC50 [1, 20]: 1.05 µM; IC50 [5, 21]: 0.935 µM; % Max response (HepG2 cells [10]): -98%; IC50 (HepG2 cells [10]; read-out: IC50 in HepG2 cells, 11 concentrations, 1:3 dilution, Inactive = no significant activity at 46 µM): 9.35 µM; IC50 [6, 22]: 1.18 µM
5 | 0.037 | 0.109 | 0.053 | Inactive | O=C1C(=O)c2ncccc2-c2cccnc21 [Phanquinone] | 23 | 
6 | 0.074 | 0.148 | 0.061 | Inactive | C[C@@H]1CC[C@H]2[C@@H](C)C(=O)O[C@@H]3O[C@@]4(C)CC[C@@H]1[C@]32OO4 [Artemisinin] | 18 | 
7 | 0.047 | 0.073 | 0.053 | Inactive | CO[C@H]1O[C@@H]2O[C@@]3(C)CC[C@H]4[C@H](C)CC[C@@H]([C@H]1C)[C@@]24OO3 [Artemether] | 7 | IC50 ([5]; Plasmodium falciparum, 3D7, strain profiling, 11 concentrations, 1:3 dilution, three times, read-out: 3D7-gametocytes IC50): 0.074 µM
8 |  |  |  | Inactive | COc1ncc(-c2ccc3nccc(-c4ccnnc4)c3c2)cc1NS(=O)(=O)c1ccc(F)cc1F [GSK-458] |  | IC50 [1, 20]: 0.332 µM; IC50 [5, 21]: 0.935 µM; % Max response (HepG2 cells [10]): 33%; IC50 [6, 22]: 1.48 µM
9 | 0.059 | 0.077 | 0.053 | Inactive | C[C@H]1[C@@H](O)O[C@@H]2O[C@@]3(C)CC[C@H]4[C@H](C)CC[C@@H]1[C@@]24OO3 [Artenimol (DHA), Artenimol] | 20 | 
10 | 0.935 | 0.526 | 1.05 | Inactive | COc1cccc2c1C(=O)c1c(O)c3c(c(O)c1C2=O)C[C@@](O)(C(=O)CO)C[C@@H]3O[C@H]1C[C@H](N)[C@H](O)[C@H](C)O1 [Adriamycin] | -35 | 

Row | Molecule | IC50 [1, 11] [µM] | IC50 [5, 12] [µM] | IC50 [6, 13] [µM] | IC50 in HepG2 cells (HepG2 cells [10]; [15]) | Emax (HepG2 cells [2]) [%] | other results
11 | Nc1ccc(-c2ccc3ncc4ccc(=O)n(-c5cccc(C(F)(F)F)c5)c4c3c2)cn1 [Torin 2, 9-(6-Amino-3-pyridinyl)-1-[3-(trifluoromethyl)phenyl]-benzo[h]-1,6-naphthyridin-2(1H)-one] | 0.015 | 0.008 | 0.012 |  | -46 | IC50 (mTOR): […]; IC50 (HepG2 cells [2]; HepG2, read-out: IC50 in HepG2 cells): 9.35 µM; IC50 [3]: 0.0011 µM; oral bioavailability [4]: 51%; exflagellation just prior to mosquito feed, drug- vs vehicle-treated mice (Plasmodium berghei ANKA; 1.5 hrs after drug treatment): no difference; also recorded: equivalent to that of the vehicle-treated controls; oocyst production in fed mosquitoes (Plasmodium berghei ANKA; single dose 2 mg/kg i.v.): significantly reduced; oocyst production in fed mosquitoes (Plasmodium berghei ANKA; single dose 4 mg/kg i.v., 4 mg/kg): almost completely eliminated; also recorded: nearly complete elimination; oocyst production in fed mosquitoes (Plasmodium berghei ANKA; two 4 mg/kg doses i.v. 3 hrs apart, feed 1.5 hrs after final treatment): completely block; also recorded: completely prevented; IC50 [7]: 0.0014 µM; IC50 [8]: 0.0066 µM; IC50 [9]: 0.00275 µM
12 | Cc1c2oc3c(C)ccc(C(=O)N[C@@H]4C(=O)N[C@H](C(C)C)C(=O)N5CCC[C@H]5C(=O)N(C)CC(=O)N(C)[C@@H](C(C)C)C(=O)O[C@@H]4C)c3nc-2c(C(=O)N[C@@H]2C(=O)N[C@H](C(C)C)C(=O)N3CCC[C@H]3C(=O)N(C)CC(=O)N(C)[C@@H](C(C)C)C(=O)O[C@@H]2C)c(N)c1=O [Dactinomycin] (I: T[dV]P[Sar][NMeV] / II: T[dV]P[Sar][NMeV]; ester I:1-I:C, II:1-II:C; linker I:N-II:N via Actinocin(9to1)) |  |  |  | Inactive | 1 | IC50 [1, 14]: 0.019 µM; IC50 ([5]; Plasmodium falciparum, 3D7, read-out: Gametocyte IC50): 0.015 µM; IC50 [6, 16]: 0.033 µM
13 | CCC(=O)N1CCN(c2ccc(-n3c(=O)ccc4cnc5ccc(-c6cnc7ccccc7c6)cc5c43)cc2C(F)(F)F)CC1 [Torin 1, 1-[4-[4-(1-Oxopropyl)-1-piperazinyl]-3-(trifluoromethyl)phenyl]-9-(3-quinolinyl)-benzo[h]-1,6-naphthyridin-2(1H)-one] | 3.72 |  | 5.26 |  |  | IC50 (mTOR): […]; fold less potent than Torin 2 against gametocytes [5]: […]; IC50 ([5]; Plasmodium falciparum, 3D7, read-out: 3D7-gametocytes IC50, strain profiling, 11 concentrations, 1:3 dilution, three times): 6.62 µM; IC50 ([5]; Plasmodium falciparum, 3D7, read-out: Gametocyte IC50, P. falciparum 3D7 gametocytes, mean of at least 3 independent experiments): 1.6 µM; times less potent than Torin 2 against asexual parasites [9]: […]; IC50 [9]: 0.215 µM
14 | CCN(CCO)CCCOc1ccc2c(Nc3cc(CC(=O)Nc4cccc(F)c4)n[nH]3)ncnc2c1 [AZD-1152-HQPA] | 1.48 | 0.743 | 1.48 | Inactive | 11 | 
15 | Plicamycin |  |  |  | Inactive |  | IC50 [1, 17]: 2.96 µM; IC50 [5, 18]: 0.833 µM; % Max response (HepG2 cells [10]): 3%; IC50 [6, 19]: 2.35 µM
16 | Monensin sodium |  |  |  | Inactive |  | IC50 [1, 17]: 0.264 µM; IC50 [5, 18]: 0.254 µM; % Max response (HepG2 cells [10]): 40%; IC50 [6, 19]: 0.372 µM
17 | S=C(SSC(=S)N1CCCCC1)N1CCCCC1 [Dicyclopentamethylenethiuram disulfide] |  |  |  | Inactive | 0 | IC50 [1, 14]: 0.743 µM; IC50 ([5]; Plasmodium falciparum, P. falciparum 3D7 gametocytes, mean of at least 3 independent experiments, read-out: Gametocyte IC50): 0.274 µM; IC50 [6, 16]: 0.743 µM
18 | CN(C)C(=S)SSC(=S)N(C)C [Thiram] | 0.148 | 0.083 |  | Inactive | 23 | IC50 [6, 16]: 0.148 µM
19 | C[C@H]1[C@H](OC(=O)CCC(=O)O)O[C@@H]2O[C@@]3(C)CC[C@H]4[C@H](C)CC[C@@H]1[C@@]24OO3 [Artesunate] | 0.047 | 0.059 | 0.03 | Inactive | 18 | 
